Results taken from patent publication US20100184699A1, “Peptide Derived From Prostate-Related Protein As Cancer Vaccine Candidate For Prostate Cancer Patient Who Is Positive For Hla-A3 Super-Type Allele Molecule” (priority 2005, published 2010).

System: peptide-specific IgG in plasma of prostate cancer patients and healthy donors
Assay: Detection of peptide-specific IgG in plasma by ELISA
Assay type: binding, human
Conditions: for IgG reactive to peptide in plasma: 1:100-diluted plasma
[1] = Prostate cancer patient 12, A11
[2] = Prostate cancer patient 14, A33
[3] = Prostate cancer patient 17, A33
[4] = Prostate cancer patient 19, A33
[5] = Prostate cancer patient 20, A33

Substance | IgG reactive to peptide in plasma, Total (positive/tested) (Healthy donors) | IgG reactive to peptide in plasma (Prostate cancer patient 2, A31) | IgG reactive to peptide in plasma (Prostate cancer patient 4, A31) | IgG reactive to peptide in plasma (Prostate cancer patient 6, A31) | IgG reactive to peptide in plasma (Prostate cancer patient 9, A11) | IgG reactive to peptide in plasma [1] | IgG reactive to peptide in plasma [2] | IgG reactive to peptide in plasma [3] | IgG reactive to peptide in plasma [4] | IgG reactive to peptide in plasma, Total (positive/tested) (Prostate cancer patients) | IgG reactive to peptide in plasma (Healthy donor 3, A31) | IgG reactive to peptide in plasma (Prostate cancer patient 5, A31) | IgG reactive to peptide in plasma [5] | IgG reactive to peptide in plasma (Prostate cancer patient 7, A11) | IgG reactive to peptide in plasma (Prostate cancer patient 8, A11) | IgG reactive to peptide in plasma (Prostate cancer patient 18, A33) | IgG reactive to peptide in plasma (Prostate cancer patient 16, A33)
YPANEYAYRR (PSMA 272-281) [PSMA-derived peptide] | 0/9 | + (IgG reactive to a corresponding peptide was judged to be positive when a difference of the optical density (OD) in a 1:100-diluted plasma was more than 100) | + (IgG reactive to a corresponding peptide was judged to be positive when a difference of the optical density (OD) in a 1:100-diluted plasma was more than 100) | + (IgG reactive to a corresponding peptide was judged to be positive when a difference of the optical density (OD) in a 1:100-diluted plasma was more than 100) | + (IgG reactive to a corresponding peptide was judged to be positive when a difference of the optical density (OD) in a 1:100-diluted plasma was more than 100) | + (IgG reactive to a corresponding peptide was judged to be positive when a difference of the optical density (OD) in a 1:100-diluted plasma was more than 100) | + (IgG reactive to a corresponding peptide was judged to be positive when a difference of the optical density (OD) in a 1:100-diluted plasma was more than 100) | + (IgG reactive to a corresponding peptide was judged to be positive when a difference of the optical density (OD) in a 1:100-diluted plasma was more than 100) | + (IgG reactive to a corresponding peptide was judged to be positive when a difference of the optical density (OD) in a 1:100-diluted plasma was more than 100) | 8/20 |  |  |  |  |  |  | 
EYFVEMYYR (PAP 324-332) [PAP-derived peptide] | 0/9 |  |  |  |  |  | + (IgG reactive to a corresponding peptide was judged to be positive when a difference of the optical density (OD) in a 1:100-diluted plasma was more than 100) |  |  | 1/20 |  |  |  |  |  |  | 
HYELGEYIR (PAP 78-86) [PAP-derived peptide] | 1/9 |  |  |  |  |  | + (IgG reactive to a corresponding peptide was judged to be positive when a difference of the optical density (OD) in a 1:100-diluted plasma was more than 100) |  |  | 1/20 | + (IgG reactive to a corresponding peptide was judged to be positive when a difference of the optical density (OD) in a 1:100-diluted plasma was more than 100) |  |  |  |  |  | 
PSMA 456-463 (IEGNYTLR; UniProt Q04609 456-463, looked up, fragment) | 0/9 |  | + (IgG reactive to a corresponding peptide was judged to be positive when a difference of the optical density (OD) in a 1:100-diluted plasma was more than 100) | + (IgG reactive to a corresponding peptide was judged to be positive when a difference of the optical density (OD) in a 1:100-diluted plasma was more than 100) | + (IgG reactive to a corresponding peptide was judged to be positive when a difference of the optical density (OD) in a 1:100-diluted plasma was more than 100) | + (IgG reactive to a corresponding peptide was judged to be positive when a difference of the optical density (OD) in a 1:100-diluted plasma was more than 100) | + (IgG reactive to a corresponding peptide was judged to be positive when a difference of the optical density (OD) in a 1:100-diluted plasma was more than 100) | + (IgG reactive to a corresponding peptide was judged to be positive when a difference of the optical density (OD) in a 1:100-diluted plasma was more than 100) | + (IgG reactive to a corresponding peptide was judged to be positive when a difference of the optical density (OD) in a 1:100-diluted plasma was more than 100) | 9/20 |  | + (IgG reactive to a corresponding peptide was judged to be positive when a difference of the optical density (OD) in a 1:100-diluted plasma was more than 100) | + (IgG reactive to a corresponding peptide was judged to be positive when a difference of the optical density (OD) in a 1:100-diluted plasma was more than 100) |  |  |  | 
RNKSVILLGR (PSA 68-77) [PSA-derived peptide] | 0/9 |  |  |  |  |  |  |  |  | 0/20 |  |  |  |  |  |  | 
TLRGAVEPDR [PSMA 361-370] | 0/9 | + (IgG reactive to a corresponding peptide was judged to be positive when a difference of the optical density (OD) in a 1:100-diluted plasma was more than 100) | + (IgG reactive to a corresponding peptide was judged to be positive when a difference of the optical density (OD) in a 1:100-diluted plasma was more than 100) | + (IgG reactive to a corresponding peptide was judged to be positive when a difference of the optical density (OD) in a 1:100-diluted plasma was more than 100) | + (IgG reactive to a corresponding peptide was judged to be positive when a difference of the optical density (OD) in a 1:100-diluted plasma was more than 100) | + (IgG reactive to a corresponding peptide was judged to be positive when a difference of the optical density (OD) in a 1:100-diluted plasma was more than 100) | + (IgG reactive to a corresponding peptide was judged to be positive when a difference of the optical density (OD) in a 1:100-diluted plasma was more than 100) | + (IgG reactive to a corresponding peptide was judged to be positive when a difference of the optical density (OD) in a 1:100-diluted plasma was more than 100) | + (IgG reactive to a corresponding peptide was judged to be positive when a difference of the optical density (OD) in a 1:100-diluted plasma was more than 100) | 12/20 |  |  | + (IgG reactive to a corresponding peptide was judged to be positive when a difference of the optical density (OD) in a 1:100-diluted plasma was more than 100) | + (IgG reactive to a corresponding peptide was judged to be positive when a difference of the optical density (OD) in a 1:100-diluted plasma was more than 100) | + (IgG reactive to a corresponding peptide was judged to be positive when a difference of the optical density (OD) in a 1:100-diluted plasma was more than 100) | + (IgG reactive to a corresponding peptide was judged to be positive when a difference of the optical density (OD) in a 1:100-diluted plasma was more than 100) | 
VIARYGKVFR (PSMA 201-210) [PSMA-derived peptide] | 0/9 |  | + (IgG reactive to a corresponding peptide was judged to be positive when a difference of the optical density (OD) in a 1:100-diluted plasma was more than 100) | + (IgG reactive to a corresponding peptide was judged to be positive when a difference of the optical density (OD) in a 1:100-diluted plasma was more than 100) | + (IgG reactive to a corresponding peptide was judged to be positive when a difference of the optical density (OD) in a 1:100-diluted plasma was more than 100) | + (IgG reactive to a corresponding peptide was judged to be positive when a difference of the optical density (OD) in a 1:100-diluted plasma was more than 100) |  | + (IgG reactive to a corresponding peptide was judged to be positive when a difference of the optical density (OD) in a 1:100-diluted plasma was more than 100) | + (IgG reactive to a corresponding peptide was judged to be positive when a difference of the optical density (OD) in a 1:100-diluted plasma was more than 100) | 7/20 |  |  | + (IgG reactive to a corresponding peptide was judged to be positive when a difference of the optical density (OD) in a 1:100-diluted plasma was more than 100) |  |  |  | + (IgG reactive to a corresponding peptide was judged to be positive when a difference of the optical density (OD) in a 1:100-diluted plasma was more than 100)
